According to paper PMC2866738 (Biochemistry, 2010):

Tested on: IN double-mutant G140S-Q148H (SH)
Format: biochemical

Compound: Cc1nnc(C(=O)NC(C)(C)c2nc(C(=O)NCc3ccc(F)cc3)c(O)c(=O)n2C)o1 [RAL, Raltegravir]
- increase in IC50 for 3′-P compared to WT (resistance factor): more than 62 fold
